Like-named read-outs stand apart in the source and are kept apart here.
What was measured:
Type in all cases: cell-based
[1] = In vitro cytotoxicity, MTT assay, Vero cells; conditions: African green monkey, 5 to 80 µM, read-out: CC50 Vero cell
Description: (§1) The toxicity of isolated compounds was assessed by a 3-(4,5-dimethythiazol2-yl)-2,5-diphenyl tetrazolium bromide (MTT) assay according to a previous method. Briefly, Vero cells, a normal mammalian cell line or HepG2 human hepatoma cell line, were seeded into 96-well plates (10^4 cell/ml) and incubated for 24 h at 37 °C with 5% CO2. Cells were then treated with various concentrations of the tested compounds ranging from 5 to 80 µM, and the final concentration of DMSO in the tested dilutions was not higher than 1% for 48 h at 37 °C with 5% CO2. Subsequently, MTT solution was added to each well, and the plate was incubated for 2 h in a CO2 incubator. The medium was then removed, and 100 µl of DMSO was added to each well. The negative control was performed using growth medium alone instead of the tested compounds, while doxorubicin (Sigma–Aldrich, New Delhi, India) was used as the positive toxic control. The assay was performed in triplicates. Finally, the optical density was determined using a microplate reader at a wavelength of 590 nm. The 50% cytotoxic concentration (CC50) was calculated using a nonlinear regression curve contained in GraphPad PRISM version 6 (GraphPad Software, Inc., La Jolla, CA, USA).

[2] = tested on: chloroquine-resistant P. falciparum (K1) strain; assay: In vitro antimalarial activity, pLDH assay; conditions: Plasmodium falciparum
Description: P. falciparum was cultured according to the method of Trager and Jensen with some modifications. The parasites were cultured in noninfected human red blood cells (2% hematocrit) using RPMI 1640 medium that was supplemented with 0.5% Albumax II, 10 µg/ml hypoxanthine, 2.5 µg/ml gentamicin, 4.8 mg/ml HEPES and buffered with 2 mg/ml sodium bicarbonate as described previously in our previous study. All the chemicals and reagents used for culturing were purchased from Sigma–Aldrich, New Delhi, India and Gibco, Waltham, MA USA. The culture was maintained at 37 °C in a CO2 incubator. The culture medium was changed, and Giemsa-stained slides were prepared daily to monitor parasitemia.
The in vitro antimalarial activity of the isolated compounds was assessed on cultured P. falciparum using the Plasmodium lactate dehydrogenase (pLDH) assay described by Makler with some modifications. Briefly, the compounds were individually dissolved in DMSO to obtain a stock solution of 1 mM, and the solution was then diluted to a final working concentration of 0.78–100 µM. […] Parasitized red blood cells (2% hematocrit, 2% parasitemia) were aliquoted into a 96-well cell culture plate, and then the infected red cells were exposed. The tested compound was added to 96-well plates and incubated at 37 °C for 72 h in a CO2 incubator. At the end of incubation, the plates were subjected to three freeze/thaw cycles (frozen at -20 °C and thawed at 37 °C) for complete hemolysis. The lysed cells were transferred to a new 96-well plate that contained a mixture of 100 µl of Malstat reagent and 20 µl of nitroblue tetrazolium/phenazine ethosulfate solution (Calbiochem®, Sigma–Aldrich, New Delhi, India) and were incubated for 1 h in the dark. The experiments were performed in triplicate. These solutions were used to determine the activity of the lactate dehydrogenase (LDH) enzyme in the cultures. When LDH was present, a purple product was formed, and the optical density was measured using a microplate reader at a wavelength of 650 nm. The concentrations at which 50% inhibition of parasite growth (IC50) was calculated using a nonlinear regression curve contained in GraphPad PRISM version 6 (GraphPad Software, Inc., La Jolla, CA, USA).

[3] = In vitro cytotoxicity, MTT assay, HepG2 cells; conditions: human, 5 to 80 µM
Description: as §1

[4] = P. falciparum K1, pLDH assay, 72 h, mean ± S.D. of three determinations, read-out: IC50 K1

IC50 [2, 4] | IC50 ([2]; P. falciparum K1, pLDH assay, 72 h, positive control, IC50 unit expressed in nM (footnote), read-out: IC50 K1 (positive control)) | SMILES | CC50 at 48 h ([1]; Vero cells) | CC50 at 48 h ([3]; HepG2 cells) | IC50 ([2]; K1, 72 h, read-out: IC50 K1) | CC50 at 48 h [1] | CC50 at 48 h [3]
9570 ± 1590 nM | – | COc1cc2c(=O)c3c(O)cccc3oc2c(OC)c1OC [Compound 9, 1-hydroxy-5,6,7-trimethoxyxanthone] | > 80 µM | > 80 µM | – | – | –
21000 ± 3560 nM | – | COc1ccc2c(=O)c3cccc(O)c3oc2c1O [Compound 2, 4,5-dihydroxy-3-methoxyxanthone] | > 80 µM | > 80 µM | – | – | –
49890 ± 420 nM | – | CC(C)CC(=O)c1c2c(c3oc(=O)cc(-c4ccccc4)c3c1O)C[C@H](C(C)(C)O)O2 [Compound 7, mammea A/AA cyclo F] | > 80 µM | > 80 µM | – | – | –
45600 ± 3120 nM | – | CC(C)CC(=O)c1c2c(c3oc(=O)cc(-c4ccccc4)c3c1O)C=CC(C)(C)O2 [Compound 6, mammea A/AA cyclo D] | > 80 µM | > 80 µM | – | – | –
18800 ± 3450 nM | – | C=C(C)[C@@H]1CC[C@]2(C)CC[C@]3(C)[C@H](CC[C@@H]4[C@@]5(C)CC[C@H](O)C(C)(C)[C@@H]5CC[C@]43C)[C@@H]12 [Compound 1, lupeol] | > 80 µM | 29.3 ± 1.47 µM | – | – | –
– | 0.53 ± 0.04 nM | C[C@H]1[C@H](OC(=O)CCC(=O)O)O[C@@H]2O[C@@]3(C)CC[C@H]4[C@H](C)CC[C@@H]1[C@@]24OO3 [Artesunate, reference compound] | – | – | – | – | –
29300 ± 4440 nM | – | COc1cccc2oc3c(O)cccc3c(=O)c12 [Compound 11, 5-hydroxy-1-methoxyxanthone] | > 80 µM | > 80 µM | – | – | –

Continued, molecule first:

SMILES | IC50 [2, 4] | IC50 ([2]; P. falciparum K1, pLDH assay, 72 h, positive control, IC50 unit expressed in nM (footnote), read-out: IC50 K1 (positive control)) | CC50 at 48 h ([1]; Vero cells) | CC50 at 48 h ([3]; HepG2 cells) | IC50 ([2]; K1, 72 h, read-out: IC50 K1) | CC50 at 48 h [1] | CC50 at 48 h [3]
COc1ccc2c(=O)c3c(O)cccc3oc2c1O [Compound 13, 1,5-dihydroxy-6-methoxyxanthone] | 22300 ± 1670 nM | – | > 80 µM | 30.5 ± 1.49 µM | – | – | –
O=c1c2cc(O)ccc2oc2cccc(O)c12 [Compound 4, 1,7-dihydroxyxanthone] | – | – | 7.9 ± 0.9 µM | 13.3 ± 1.12 µM | 41700 ± 2230 nM | – | –
O=c1c2ccccc2oc2ccc(O)cc12 [Compound 12, 2-hydroxyxanthone] | – | – | – | – | 75000 ± 880 nM | > 80 µM | > 80 µM
COc1cccc2c1C(=O)c1c(O)c3c(c(O)c1C2=O)C[C@@](O)(C(=O)CO)C[C@@H]3O[C@H]1C[C@H](N)[C@H](O)[C@H](C)O1 [Doxorubicin, reference compound] | – | – | 1.46 ± 0.16 µM | 1.11 ± 0.05 µM | – | – | –
O=c1c2ccccc2oc2c(O)cccc12 [Compound 3, 4-hydroxyxanthone] | – | – | – | – | 68600 ± 2540 nM | 48.1 ± 1.68 µM | 46.1 ± 1.66 µM
O=c1c2cccc(O)c2oc2c(O)c(O)ccc12 [Compound 10, 3,4,5-trihydroxyxanthone] | 15500 ± 2630 nM | – | > 80 µM | > 80 µM | – | – | –
O=c1c2ccc(O)cc2oc2cccc(O)c12 [Compound 8, 1,6-dihydroxyxanthone] | 47900 ± 5160 nM | – | – | – | – | > 80 µM | > 80 µM

Reference: article PMC9554980, “Antimalarial potential of compounds isolated from Mammea siamensis T. Anders. flowers: in vitro and molecular docking studies” (BMC Complementary Medicine and Therapies, 2022)
